Reference: patent US10472341B2, “Bicyclic tetrahydrothiazepine derivatives useful for the treatment of neoplastic and/or infectious diseases” (APEIRON BIOLOGICS AG, priority 2015, dated 2019)
Where “and” joins values, the source holds several entries; their conditions need not be identical. Identical values can stand only once. Counter-ions that a name gives are not always drawn. Like-named read-outs stand apart in the source and are kept apart here.

Experiments:
[1] = tested on: CD8 T cells; assay: CD69 expression on aCD3/aCD28 stimulated isolated human CD8 T cells (flow cytometry); format: cell-based; details: T-cell, 24 h after TCR stimulation, read-out: Activity Class CD69 (CD8)
Procedure: (§1) Isolated T cells were plated in Xvivo medium at 1.5*10 ^5 cells per in 96 well culture plates and TCR-stimulated with anti-CD3/28 mAbs in the presence of compound as indicated. Cytokine production was determined at 24 h or 48 h following TCR stimulation in cell culture supernatants using commercially available ELISA kits (BD and eBioscience) as recommended by the manufacturer. T cell proliferation and CD25 expression (CD25-PC5 reagent purchased from Beckman Coulter) was determined by flow cytometry (Beckman-Coulter FC500) and analysed with Kaluza Software. For measurement of CD69 expression, isolated CD4 and CD8 T cells were plated in Xvivo medium at […] per in 96 well culture plates and TCR-stimulated with anti-CD3/28 mAbs in the presence of compound. CD69 expression was determined at 24 h following TCR stimulation by flow cytometry (CD4eF450, CD8APCeF780 and CD69-PC7 reagent purchased from eBioscience) and analysed with Kaluza Software.
(§2) For measurement of CD69 expression, isolated CD4 and CD8 T cells were plated in Xvivo medium at 80000 cells per in 96 well culture plates and TCR-stimulated with anti-CD3/28 mAbs in the presence of compound. CD69 expression was determined at 24 h following TCR stimulation by flow cytometry (CD4eF450, CD8APCeF780 and CD69-PC7 reagent purchased from eBioscience) and analysed with Kaluza Software.

[2] = tested on: CD4 T cells; assay: CD69 expression on aCD3/aCD28 stimulated isolated human CD4 T cells (flow cytometry); format: cell-based; details: 24 h after TCR stimulation, read-out: Activity Class CD69 (CD4)
Procedure: as §1, §2

[3] = tested on: aCD3/aCD28-stimulated human PBMCs; assay: Cytokine production in aCD3/aCD28 stimulated human PBMCs; format: cell-based; details: PBMC, 18 h
Outline: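 Compound effects measured in buffy-coat PBMCs activated 18 h at 37° C by 1 μg/mL each of soluble anti-CD3 (OKT3) and anti-CD28 (28.2), 1e6 cells/mL. Cytokines in harvested supernatants read by MSD or HTRF.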

[4] = tested on: CD8 T cells & M21 tumor cells; assay: CD8 T cells from M21-prestimulated PBMCs restimulated with M21 tumor cells, with or without PD-1 blockade; format: cell-based, human; details: for Average Granzyme B / Average IFN-g / Average IL-2 / Average Number of living M21 tumor cells: no cpd
Procedure: For experiments investigating effects of PD-1 blockade, PBMCs were preincubated with 1 h UV-irradiated M21 tumor cells (50000 tumor cells per 1 Mill. PBMCs) for 14 days. […] Compounds and anti-PD-1 antibody (Nivolumab) or control antibody without direct effects on CD8 T cells (Ipilimumab) were added where indicated.
[…] Example 107, no antibody (no Ig), anti-PD-1 antibody (Nivolumab) or control antibody without direct effects on CD8 T cells (Ipilimumab) were included where indicated.

[5] = tested on: aCD3/aCD28-stimulated human CD4+-T-cells; assay: IL-2 production and activation markers in aCD3/aCD28 stimulated isolated human CD4+-T-cells; format: cell-based; details: IL-2 production at 3 μM compound
Outline: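 CD4+ T cells isolated from buffy-coat PBMCs by microbeads were plated in Xvivo medium (1.5*10^5 cells/well) and stimulated with anti-CD3/28 mAbs plus compound. IL-2 measured by ELISA in supernatants at 24 h or 48 h; CD25 and proliferation by flow cytometry, CD69 at 24 h. Activity classes based on IL-2 at 3 μM compound.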

[6] = enhancement of IFN-γ production, read-out: Activity Class IFN-γ
[7] = enhancement of IL-2 production, read-out: Activity Class IL-2

EC50 [1] [µM] | EC50 [2] [µM] | Compound | EC50 [3, 6] [µM] | EC50 [3, 7] [µM] | further results
> 5.01 | > 5.01 | N[C@H]1CS(=O)(=O)c2ccc(C(=O)NCCN3CCOCC3)cc2N(Cc2ccc(Cl)cc2)C1=O [Example 176, (3R)-3-amino-5-[(4-chlorophenyl)methyl]-N-[2-(morpholin-4-yl)ethyl]-1,1,4-trioxo-2,3,4,5-tetrahydro-1λ^6,5-benzothiazepine-7-carboxamide] | > 5.01 | > 5.01 | –
< 1.58 | < 1.58 | N[C@H]1CS(=O)(=O)c2ccc(C(=O)N[C@@H]3CC3(F)F)cc2N(Cc2ccc(C3CC3)cc2)C1=O [Example 159, (3R)-3-amino-5-[(4-cyclopropylphenyl)methyl]-N-[(1R)-2,2-difluorocyclopropyl]-1,1,4-trioxo-2,3,4,5-tetrahydro-1λ^6,5-benzothiazepine-7-carboxamide] | 1.58 to 5.01 | 1.58 to 5.01 | –
1.58 to 5.01 | > 5.01 | N[C@H]1CSc2cc(F)c(C(=O)NC3CC(F)(F)C3)cc2N(Cc2ccc(Cl)cc2)C1=O [Example 128, (3R)-3-amino-5-[(4-chlorophenyl)methyl]-N-(3,3-difluorocyclobutyl)-8-fluoro-4-oxo-2,3,4,5-tetrahydro-1,5-benzothiazepine-7-carboxamide hydrochloride] | 1.58 to 5.01 | 1.58 to 5.01 | –
1.58 to 5.01 | 1.58 to 5.01 | COc1ccc(CNC(=O)c2ccc3c(c2)N(Cc2ccccc2)C(=O)[C@@H](N)CS3(=O)=O)cc1 [Example 152, (3R)-3-amino-5-benzyl-N-[(4-methoxyphenyl)methyl]-1,1,4-trioxo-2,3,4,5-tetrahydro-1λ^6,5-benzothiazepine-7-carboxamide] | 1.58 to 5.01 | > 5.01 | –
< 1.58 | < 1.58 | COc1ccc(CNC(=O)c2ccc3c(c2)N(Cc2ccc(Cl)cc2)C(=O)[C@@H](N)CS3(=O)=O)cc1 [Example 153, (3R)-3-amino-5-[(4-chlorophenyl)methyl]-N-[(4-methoxyphenyl)methyl]-1,1,4-trioxo-2,3,4,5-tetrahydro-1λ^6,5-benzothiazepine-7-carboxamide] | < 1.58 | < 1.58 | –
< 1.58 | 1.58 to 5.01 | COc1ccc(CN2C(=O)[C@@H](N)CS(=O)(=O)c3ccc(C(=O)NC4CCC(F)(F)CC4)cc32)cc1 [Example 154, (3R)-3-amino-N-(4,4-difluorocyclohexyl)-5-[(4-methoxyphenyl)methyl]-1,1,4-trioxo-2,3,4,5-tetrahydro-1λ^6,5-benzothiazepine-7-carboxamide] | 1.58 to 5.01 | > 5.01 | –
1.58 to 5.01 | 1.58 to 5.01 | N[C@H]1CS(=O)(=O)c2cc(F)c(C(=O)N[C@H]3CCC(F)(F)C3)cc2N(Cc2ccc(Cl)cc2)C1=O [Example 146, (3R)-3-amino-5-[(4-chlorophenyl)methyl]-N-[(1S)-3,3-difluorocyclopentyl]-8-fluoro-1,1,4-trioxo-2,3,4,5-tetrahydro-1λ^6,5-benzothiazepine-7-carboxamide] | < 1.58 | < 1.58 | –
< 1.58 | < 1.58 | N[C@H]1CS(=O)(=O)c2ccc(C(=O)NCC3(F)CCOCC3)cc2N(Cc2ccc(Cl)cc2)C1=O [Example 165, (3R)-3-amino-5-[(4-chlorophenyl)methyl]-N-[(4-fluorooxan-4-yl)methyl]-1,1,4-trioxo-2,3,4,5-tetrahydro-1λ^6,5-benzothiazepine-7-carboxamide] | < 1.58 | 1.58 to 5.01 | –
1.58 to 5.01 | > 5.01 | N[C@H]1CS(=O)(=O)c2cc(F)c(C(=O)NC3CC3(F)F)cc2N(Cc2ccc(F)cc2)C1=O (stereo partly drawn) [Example 130, (3R)-3-amino-N-(2,2-difluorocyclopropyl)-8-fluoro-5-[(4-fluorophenyl)methyl]-1,1,4-trioxo-2,3,4,5-tetrahydro-1λ^6,5-benzothiazepine-7-carboxamide hydrochloride] | 1.58 to 5.01 | > 5.01 | –
> 5.01 | > 5.01 | N#Cc1ccc(CN2C(=O)[C@@H](N)CS(=O)(=O)c3cc(F)c(C(=O)NC4CC4(F)F)cc32)cc1 (stereo partly drawn) [Example 124, (3R)-3-amino-5-[(4-cyanophenyl)methyl]-N-(2,2-difluorocyclopropyl)-8-fluoro-1,1,4-trioxo-2,3,4,5-tetrahydro-1λ^6,5-benzothiazepine-7-carboxamide hydrochloride] | 1.58 to 5.01 | > 5.01 | –

Second part, the compound before the results:

Compound | EC50 [1] [µM] | EC50 [2] [µM] | EC50 [3, 6] [µM] | EC50 [3, 7] [µM] | further results
Nivolumab | – | – | – | – | reduction in viable tumor cells ([4]; Nivolumab alone): not able to cause a significant reduction in viable tumor cells; Average Granzyme B ([4]; Nivolumab alone): 1.758 ng/mL; Average IFN-g ([4]; Nivolumab alone): 0.014 ng/mL; Average IL-2 ([4]; Nivolumab alone): 0.046 ng/mL; Average Number of living M21 tumor cells ([4]; Nivolumab alone): 20344 and 22655; cytokine secretion ([4]; PD-1 blockade alone, CD8 T cells & M21 (expresses PD-L1)): also enhanced cytokine secretion
Ipilimumab | – | – | – | – | Average Granzyme B ([4]; Ipilimumab alone): 0.612 ng/mL; Average IFN-g ([4]; Ipilimumab alone): 0.000 ng/mL; Average IL-2 ([4]; Ipilimumab alone): 0.024 ng/mL; Average Number of living M21 tumor cells ([4]; Ipilimumab alone): 22648 and 25130; synergistic enhancement of cytokine production with example 107 ([4]; control antibody not targeting CD8 T cells): No such effects were observed
CCCCNC(=O)c1cc2c(cc1F)SC[C@H](N)C(=O)N2Cc1ccc(Cl)c(F)c1 [Example 57, (3R)-3-amino-N-butyl-5-[(4-chloro-3-fluorophenyl)methyl]-8-fluoro-4-oxo-2,3,4,5-tetrahydro-1,5-benzothiazepine-7-carboxamide] | – | – | < 1.58 | 1.58 to 5.01 | Activity Class CD4+ [5]: C (IL-2 production at 3 μM compound concentration between 2-fold increase as compared to mean IL-2 production of stimulated cells in the absence of compounds and <2 ng/mL)
C[C@@H]1[C@H](N)C(=O)N(Cc2ccc(Cl)cc2)c2cc(C(=O)NC3CC3(F)F)ccc2S1(=O)=O.Cl (stereo partly drawn) [Example 108, (2R,3R)-3-amino-5-[(4-chlorophenyl)methyl]-N-(2,2-difluorocyclopropyl)-2-methyl-1,1,4-trioxo-2,3,4,5-tetrahydro-1λ^6,5-benzothiazepine-7-carboxamide hydrochloride] | – | – | > 5.01 | > 5.01 | Activity Class CD4+ [5]: C (IL-2 production at 3 μM compound concentration between 2-fold increase as compared to mean IL-2 production of stimulated cells in the absence of compounds and <2 ng/mL)
CC(C)NC(=O)c1ccc2c(c1)N(Cc1ccc(Cl)cc1)C(=O)[C@@H](N)CS2(=O)=O.Cl [Example 79, (3R)-3-amino-5-[(4-chlorophenyl)methyl]-1,1,4-trioxo-N-(propan-2-yl)-2,3,4,5-tetrahydro-1λ^6,5-benzothiazepine-7-carboxamide hydrochloride] | – | – | 1.58 to 5.01 | > 5.01 | Activity Class CD4+ [5]: B (IL-2 production at 3 μM compound concentration between 2-10 ng/mL)
CCCC(=O)NNC(=O)c1ccc2c(c1)N(Cc1ccc(Cl)cc1)C(=O)[C@@H](N)CS2.Cl [Example 53, (3R)-3-amino-N′-butanoyl-5-[(4-chlorophenyl)methyl]-4-oxo-2,3,4,5-tetrahydro-1,5-benzothiazepine-7-carbohydrazide hydrochloride] | – | – | > 5.01 | > 5.01 | Activity Class CD4+ [5]: C (IL-2 production at 3 μM compound concentration between 2-fold increase as compared to mean IL-2 production of stimulated cells in the absence of compounds and <2 ng/mL)
C[C@@H](NC(=O)c1ccc2c(c1)N(Cc1ccc(Cl)cc1)C(=O)[C@@H](N)CS2)c1ccc(F)cc1.Cl [Example 38, (3R)-3-amino-5-[(4-chlorophenyl)methyl]-N-[(1R)-1-(4-fluorophenyl)ethyl]-4-oxo-2,3,4,5-tetrahydro-1,5-benzothiazepine-7-carboxamide hydrochloride] | – | – | 1.58 to 5.01 | 1.58 to 5.01 | Activity Class CD4+ [5]: C (IL-2 production at 3 μM compound concentration between 2-fold increase as compared to mean IL-2 production of stimulated cells in the absence of compounds and <2 ng/mL)
